Source: patent publication US11981660B2, “Neurite outgrowth promoters and uses thereof” (UNIVERSITY OF MIAMI, priority 2018, dated 2024)

System: hippocampal neurons
Assay: Neurite outgrowth assay in cultured E18 rat hippocampal neurons (48 h, βIII-tubulin staining, Cellomics ArrayScan)
Assay type: cell-based
Details: Hippocampal neuron; for activity at 0.015625 µg/mL: 15.625 ng/mL compound; for activity at 0.015625 µg/mL / activity at 0.03125 µg/mL / activity at 0.0625 µg/mL / activity at 0.125 µg/mL / activity at 0.25 µg/mL / activity at 0.5 µg/mL: 48 hours, read-out: neurite growth length (% NTL); for activity at 0.03125 µg/mL: 31.25 ng/mL compound; for activity at 0.0625 µg/mL: 62.5 ng/mL compound; for activity at 0.125 µg/mL: 125 ng/mL compound; for activity at 0.25 µg/mL: 250 ng/mL compound; for activity at 0.5 µg/mL: 500 ng/mL compound; for EC200 / EC300: 48 h, estimated using linear interpolation; for EC200: 200% effective dose, read-out: ED200%; for EC300: 300% effective dose, read-out: ED300%
Protocol: Pre-coating culture plates: On the day before the experiment, 96-well plates were pre-coated by plating 50 μL of poly-D-lysine solution (PDL, 0.5 mg/mL) in each well. The next morning, the plates were washed four or five times with HBSS or PBS (150 μL/rinse), then left in buffer until cell plating
Preparing the cells: A timed pregnant rat carrying E18 embryos was euthanized using an IACUC approved method. In a laminar flow hood, the embryos were removed and placed in a petri dish containing Hank's Balanced Salt Solution (HBSS) with 20 mM HEPES, pH 7.3. Pup brains were dissected (see Meberg et al., Methods cell Biol 71:111-127 (2003)) and hippocampi were collected in 15 mL a conical tube containing Hibernate E with SM1 (2% v/v).
Dissociation media was prepared by combining 4.5 mL of Hibernate E (without SM1) with 0.5 mL of trypsin and 100 μl of DNAse solution. The medium over the hippocampi was carefully removed and replaced with dissociation solution, then incubated at 37° C. for 15-20 minutes, occasionally swirling the tube.
Using flame polished cotton plugged Pasteur pipettes, the dissociation media was removed, and then 5 mL of Hibernate E containing SM1 were added. The tube was swirled to thoroughly wash the tissue. The tissue was allowed to settle to the bottom of the tube, and the rinse solution was carefully removed. This step was repeated 5 times to dilute out trypsin and DNAse and remove any debris from lysed cells.
The final rinse media was removed from the tube and 1 pipette-full (1-2 mL) of Hibernate E with SM1 was added. Using the flame-polished Pasteur pipette (pre-wetted with rinse media), the tube was triturated until all cells had dissociated and no visible chunks of tissue remained. Fewer than ten triturations were typically performed. The volume was adjusted to 8-12 mL using Hibernate E containing SM1, the well was mixed and cell concentration was determined.
Plating: The cells were diluted in culture media (NbActiv4 Cell-culture media) to a final concentration of 10,000 cells/mL. The HBSS was aspirated from PDL coated plates, and 150 μL of cell solution was loaded in the middle 48 wells at 1500 cells per well. Water was loaded in the outer wells to decrease evaporation from edge wells. Cells were allowed to adhere for 2 hours in tissue culture incubator prior to treatment.
Treatment: Compounds were diluted to various concentrations to provide 6 dose response concentrations of 500 ng/mL, 250 ng/mL, 125 ng/mL, 62.5 ng/mL, 31.25 ng/mL, and 15.625 ng/mL. The plates were cultured for 48 hours, exposed to the compound at the various dose response concentrations.
Fixing the cultures: The culture medium was removed from the plates and immediately replaced with 100-200 μL of warm (37° C.) 4% paraformaldehyde (“PFA”) solution in phosphate-buffered saline (“PBS”). The cells were fixed for 15-20 minutes at room temperature, and then rinsed with PBS (200 μl/well×3).
Staining and imaging: The PBS was removed and replaced with 100 μL of blocking/permeabilization buffer (PBS, 0.2% fish gelatin, 0.03% Triton X-100, 0.02% NaN3), then incubated overnight at 4° C. To this was added 100 μL of primary antibody solution (mouse anti-Beta III tubulin in blocking buffer) and incubate overnight at 4° C. The wells were rinsed with PBS (200 μl×3), which was then removed and replaced with 100 μL of secondary antibody solution (Goat anti-mouse Alexa 488, 10 μg/ml Hoechst 33342, 0.2% fish gelatin, 0.02% azide, in PBS). The plate was shaken gently on a rotating shaker for 2 hours, then rinsed with PBS (200 μl×5).
The plate was imaged using a Cellomics ArrayScan VTI in 2 different channels for nuclear staining (Hoechst) and cell body/neurite staining (βIII-tubulin). Typically, nine fields per well were imaged with a 5× objective and automatically traced by the Neuronal Profiling Bioapplication. To get reproducible results, at least 200-300 valid neurons were measured per condition. […]

Structure (SMILES): CCC(C)C1=N[C@@H](CCCCN2C[C@@H](C)N(CCCC(C)C)C2=S)CN1 (mixture of isomers) [Compound A1, (4R)-1-(4-((4S)-2-(sec-butyl)-4,5-dihydro-1H-imidazol-4-yl)butyl)-4-methyl-3-(4-methylpentyl)imidazolidine-2-thione]
- activity at 0.015625 µg/mL: 92%
- activity at 0.03125 µg/mL: 116%
- activity at 0.0625 µg/mL: 155%
- activity at 0.125 µg/mL: 169%
- activity at 0.25 µg/mL: 209%
- activity at 0.5 µg/mL: 323%

Structure (SMILES): CCC(C)C1=N[C@@H](CCCCN2C[C@@H](CC(C)C)N(CCCC(C)C)C2=S)CN1 (mixture of isomers) [Compound A10, (4R)-1-(4-((4S)-2-(sec-butyl)-4,5-dihydro-1H-imidazol-4-yl)butyl)-4-isobutyl-3-(4-methylpentyl)imidazolidine-2-thione]
- activity at 0.015625 µg/mL: 123%
- activity at 0.03125 µg/mL: 180%
- activity at 0.0625 µg/mL: 223%
- activity at 0.125 µg/mL: 254%
- activity at 0.25 µg/mL: 259%
- activity at 0.5 µg/mL: 240%

Structure (SMILES): CC(C)CCCN1C(=S)N(CCCC[C@H]2CNC(C3CCCC3)=N2)C[C@H]1C [Compound A2, (R)-1-(4-((S)-2-cyclopentyl-4,5-dihydro-1H-imidazol-4-yl)butyl)-4-methyl-3-(4-methylpentyl)imidazolidine-2-thione]
- activity at 0.015625 µg/mL: 114%
- activity at 0.03125 µg/mL: 138%
- activity at 0.0625 µg/mL: 176%
- activity at 0.125 µg/mL: 214%
- activity at 0.25 µg/mL: 265%
- activity at 0.5 µg/mL: 324%

Structure (SMILES): CC(C)CCCN1C(=S)N(CCCC[C@H]2CNC(CCCc3ccccc3)=N2)C[C@H]1C [Compound A3, (R)-4-methyl-3-(4-methylpentyl)-1-(4-((S)-2-(3-phenylpropyl)-4,5-dihydro-1H-imidazol-4-yl)butyl)imidazolidine-2-thione]
- activity at 0.015625 µg/mL: 116%
- activity at 0.03125 µg/mL: 100%
- activity at 0.0625 µg/mL: 124%
- activity at 0.125 µg/mL: 160%
- activity at 0.25 µg/mL: 257%
- activity at 0.5 µg/mL: 347%

Structure (SMILES): CCC(C)C1=N[C@@H](CCCCN2C[C@@H](C)N(CCC3CCCCC3)C2=S)CN1 (stereo partly drawn) [Compound A4, (4R)-1-(4-((4S)-2-(sec-butyl)-4,5-dihydro-1H-imidazol-4-yl)butyl)-3-(2-cyclohexylethyl)-4-methylimidazolidine-2-thione]
- activity at 0.015625 µg/mL: 102%
- activity at 0.03125 µg/mL: 121%
- activity at 0.0625 µg/mL: 143%
- activity at 0.125 µg/mL: 196%
- activity at 0.25 µg/mL: 246%
- activity at 0.5 µg/mL: 358%

Structure (SMILES): C[C@@H]1CN(CCCC[C@H]2CNC(C3CCCC3)=N2)C(=S)N1CCC1CCCCC1 [Compound A5, (R)-3-(2-cyclohexylethyl)-1-(4-((S)-2-cyclopentyl-4,5-dihydro-1H-imidazol-4-yl)butyl)-4-methylimidazolidine-2-thione]
- activity at 0.015625 µg/mL: 105%
- activity at 0.03125 µg/mL: 158%
- activity at 0.0625 µg/mL: 188%
- activity at 0.125 µg/mL: 251%
- activity at 0.25 µg/mL: 246%
- activity at 0.5 µg/mL: 304%

Structure (SMILES): C[C@@H]1CN(CCCC[C@H]2CNC(CCCc3ccccc3)=N2)C(=S)N1CCC1CCCCC1 [Compound A6, (R)-3-(2-cyclohexylethyl)-4-methyl-1-(4-((S)-2-(3-phenylpropyl)-4,5-dihydro-1H-imidazol-4-yl)butyl)imidazolidine-2-thione]
- activity at 0.015625 µg/mL: 101%
- activity at 0.03125 µg/mL: 122%
- activity at 0.0625 µg/mL: 122%
- activity at 0.125 µg/mL: 210%
- activity at 0.25 µg/mL: 247%
- activity at 0.5 µg/mL: 243%

Structure (SMILES): CCC(C)C1=N[C@@H](CCCCN2C[C@@H](C)N(CC3CCC(C)CC3)C2=S)CN1 (stereo partly drawn) [Compound A7, (4R)-1-(4-((4S)-2-(sec-butyl)-4,5-dihydro-1H-imidazol-4-yl)butyl)-4-methyl-3-((4-methylcyclohexyl)methyl)imidazolidine-2-thione]
- activity at 0.015625 µg/mL: 97%
- activity at 0.03125 µg/mL: 135%
- activity at 0.0625 µg/mL: 150%
- activity at 0.125 µg/mL: 166%
- activity at 0.25 µg/mL: 267%
- activity at 0.5 µg/mL: 294%

Structure (SMILES): CC1CCC(CN2C(=S)N(CCCC[C@H]3CNC(C4CCCC4)=N3)C[C@H]2C)CC1 (stereo partly drawn) [Compound A8, (R)-1-(4-((S)-2-cyclopentyl-4,5-dihydro-1H-imidazol-4-yl)butyl)-4-methyl-3-((4-methylcyclohexyl)methyl)imidazolidine-2-thione]
- activity at 0.015625 µg/mL: 95%
- activity at 0.03125 µg/mL: 128%
- activity at 0.0625 µg/mL: 168%
- activity at 0.125 µg/mL: 231%
- activity at 0.25 µg/mL: 257%
- activity at 0.5 µg/mL: 322%
- EC200: 0.13 µM
- EC300: 0.282 µM

Structure (SMILES): CC1CCC(CN2C(=S)N(CCCC[C@H]3CNC(CCCc4ccccc4)=N3)C[C@H]2C)CC1 (stereo partly drawn) [Compound A9, (R)-4-methyl-3-((4-methylcyclohexyl)methyl)-1-(4-((S)-2-(3-phenylpropyl)-4,5-dihydro-1H-imidazol-4-yl)butyl)imidazolidine-2-thione]
- activity at 0.015625 µg/mL: 88%
- activity at 0.03125 µg/mL: 102%
- activity at 0.0625 µg/mL: 118%
- activity at 0.125 µg/mL: 70%
- activity at 0.25 µg/mL: 238%
- activity at 0.5 µg/mL: 297%

Structure (SMILES): CC(C)CCCN1C(=S)N(CCCC[C@H]2CNC(C3CCCC3)=N2)C[C@H]1CC(C)C [Compound A11, (R)-1-(4-((S)-2-cyclopentyl-4,5-dihydro-1H-imidazol-4-yl)butyl)-4-isobutyl-3-(4-methylpentyl)imidazolidine-2-thione]
- activity at 0.015625 µg/mL: 135%
- activity at 0.03125 µg/mL: 215%
- activity at 0.0625 µg/mL: 266%
- activity at 0.125 µg/mL: 273%
- activity at 0.25 µg/mL: 264%
- activity at 0.5 µg/mL: 256%

Structure (SMILES): CC(C)CCCN1C(=S)N(CCCC[C@H]2CNC(CCCc3ccccc3)=N2)C[C@H]1CC(C)C [Compound A12, (R)-4-isobutyl-3-(4-methylpentyl)-1-(4-((S)-2-(3-phenylpropyl)-4,5-dihydro-1H-imidazol-4-yl)butyl)imidazolidine-2-thione]
- activity at 0.015625 µg/mL: 127%
- activity at 0.03125 µg/mL: 145%
- activity at 0.0625 µg/mL: 194%
- activity at 0.125 µg/mL: 237%
- activity at 0.25 µg/mL: 266%
- activity at 0.5 µg/mL: 240%

Structure (SMILES): CCC(C)C1=N[C@@H](CCCCN2C[C@@H](CC(C)C)N(CCC3CCCCC3)C2=S)CN1 (stereo partly drawn) [Compound A13, (4R)-1-(4-((4S)-2-(sec-butyl)-4,5-dihydro-1H-imidazol-4-yl)butyl)-3-(2-cyclohexylethyl)-4-isobutylimidazolidine-2-thione]
- activity at 0.015625 µg/mL: 159%
- activity at 0.03125 µg/mL: 179%
- activity at 0.0625 µg/mL: 262%
- activity at 0.125 µg/mL: 253%
- activity at 0.25 µg/mL: 253%
- activity at 0.5 µg/mL: 264%

Structure (SMILES): CC(C)C[C@@H]1CN(CCCC[C@H]2CNC(C3CCCC3)=N2)C(=S)N1CCC1CCCCC1 [Compound A14, (R)-3-(2-cyclohexylethyl)-1-(4-((S)-2-cyclopentyl-4,5-dihydro-1H-imidazol-4-yl)butyl)-4-isobutylimidazolidine-2-thione]
- activity at 0.015625 µg/mL: 195%
- activity at 0.03125 µg/mL: 256%
- activity at 0.0625 µg/mL: 271%
- activity at 0.125 µg/mL: 283%
- activity at 0.25 µg/mL: 277%
- activity at 0.5 µg/mL: 249%
- EC200: 0.004 µM
- EC300: > 0.543 µM
